The subject of assay [1] is T2D model mice. Briefly: Serum blood lipids in T2D model mice at end of experiment. The settings on record: after 2 months of treatment.
The test system of assay [2] is T2D model mice. The experiment in a line: Glucose tolerance (OGTT) in T2D model mice. The class given is in vivo, C57bL/6 mice. To be noted: before sacrifice.
The subject of assay [3] is T2D model mice. The experiment in a line: Body weight change of T2D model mice treated by gavage for 2 months. The class given is in vivo, C57bL/6 mice. To be noted: intragastric treatment.
Assay [4] relates to T2D model mice. Briefly: Fasting blood glucose (FBG) in T2D model mice. It is filed as in vivo, C57bL/6 mice.

The structures appear in SMILES notation. Marks after values point to notes of the source that are not given here.

As to `CN(C)C(=N)N=C(N)N` [Metformin, metformin], the “HDLC (high-density lipoprotein)” value in the assay with T2D model mice [1] is 3.023* mmol/L. In the assay with T2D model mice [1], the “LDLC (low density lipoprotein)” value was 1.533* mmol/L. Also, the “TC (total cholesterol)” value in the assay with T2D model mice [1] is given as 5.923 mmol/L. In addition, the “TG (triglyceride)” value in the assay on T2D model mice [1] was 1.565 mmol/L. Besides, the “blood glucose in glucose tolerance test (OGTT)” value in the assay with T2D model mice [2] (0 min after glucose gavage) was 9.2 mmol/L; in the assay with T2D model mice [2] (30 min after glucose gavage), 19.5 mmol/L; in the assay on T2D model mice [2] (60 min after glucose gavage), 16.1 mmol/L; in the assay on T2D model mice [2] (90 min after glucose gavage), 10.9* mmol/L; in the assay on T2D model mice [2] (120 min after glucose gavage) it was 10.1* mmol/L; with T2D model mice [2] (120 min after glucose gavage, listed as metformin), 9.8 mmol/L. The body weight with T2D model mice [3] (1 week) is 21.54 g; in the assay on T2D model mice [3] (3 weeks), 23.42 g; with T2D model mice [3] (5 weeks) it was 25.23 g; in the assay on T2D model mice [3] (7 weeks), 26.6 g; in the assay on T2D model mice [3] (9 weeks) it was 27.49* g. In addition, the fasting blood glucose in the assay on T2D model mice [4] (week five) is on record as 14.6 mmol/L; in the assay with T2D model mice [4] (week nine) it was 9.8** mmol/L; with T2D model mice [4] (week one) it was 16.7 mmol/L; with T2D model mice [4] (week seven) it was 12.1* mmol/L; in the assay with T2D model mice [4] (week three), 15.8 mmol/L.

These data come from US10799540B2, “Faecalibacterium longum and application thereof” (BGI SHENZHEN, priority 2016, dated 2020).
